Molecules are shown by their SMILES. Values after ≈ are worked out from the molar mass of the structure shown. Read-outs that look alike come from different tables or passages of the source.

Here are results for 1 molecule from patent US20030198674A1, “Controlled release pharmaceutical dosage forms of a cholesteryl ester transfer protein inhibitor” (priority 2002, published 2003).

Data set [1] can be described thus: Single-dose plasma Drug A concentration vs. time curve fitted to 2-compartment PK model. Format: in vivo, Human. On the procedure: Pharmacokinetic (PK) constants were derived by fitting this curve to a 2-compartment PK model, assuming a small intestinal transit time of 4 hr, and a gastric emptying time of 15 min.
Data set [2] in a line: Plasma half-life of Drug A. Format: in vivo.
The nature of data set [3]: Aqueous solubility of Drug A. Format: physicochemical.
Where [4] appears, read: 120 mg Drug A, fitted 2-compartment model.

As for `CCOC(=O)N1c2ccc(C(F)(F)F)cc2[C@@H](N(Cc2cc(C(F)(F)F)cc(C(F)(F)F)c2)C(=O)OC)C[C@H]1CC` [Drug A, [2R,4S] 4-[(3,5-bis-trifluoromethyl-benzyl)-methoxycarbonyl-amino]-2-ethyl-6-trifluoromethyl-3,4-dihydro-2H-quinoline-1-carboxylic acid ethyl ester], the “Absorption Ka” value in data set [1] (setting [4]) amounted to 2.27 h⁻¹. The K12 in data set [1] (setting [4]) came to 0.017 h⁻¹. In data set [1] (setting [4]), this molecule returned a K21 of 0.002 h⁻¹. Further, in data set [1] (calculated from Cl/Vd), the “Kel (Elimination Rate Constant)” value is 0.042 h⁻¹. The clearance in data set [1] (human, plasma, oral, 120 mg, read-out: Clearance (Cl) (converted)) was 218 mL/min. The Vd in data set [1] (human, plasma, oral, 120 mg, read-out: Volume of distribution (Vd)) came to 174 L. Further, the results for the half-life in data set [2] (read-out: additional long terminal elimination half-life) and in data set [2] (read-out: effective plasma terminal half-life (t1/2)) were 100 to 200 h and 30 to 70 h, respectively. For the same molecule, the aqueous solubility entry in data set [3] is “about 0.04 microgm/ml”. The solubility (usually the concentration that dissolves in the medium under given conditions) in data set [3] (water (aqueous), accurate measurements, crystalline) is roughly 0.01 µg/mL (≈ 0.0167 µM); in data set [3] (water, read-out: solubility in water) it was less than 1 µg/mL.
